Assay results published in article PMC11801715, “Activating PKC-ε induces HIV expression with improved tolerability” (PLOS Pathogens, 2025).

Legend:
PKC-θ = PKC-θ (Homo sapiens, UniProt Q04759); test: Cell fractionation and western blotting in CD4+ T cells; type: cell-based; conditions: 1 hour
Method: (§1) CD4^+ T cells treated with C-232A for 1 hour in a concentration-dependent manner were separated into cytoplasmic and membrane protein fractions using a cell fractionation kit (Cell Signaling Technology, catalog 9038) and protein concentrations quantified using a Pierce BCA assay (Thermo Fisher Scientific, catalog 23227). 4–6 μg of fractionated total protein lysate was fractionated on SDS-PAGE gel using Peggy Sue (Protein Simple). The resulting area under the curve was normalized against β-actin.
(§2) (A) Western blot of PKC isoforms θ, α, β2, and β1 in cytoplasmic and membrane fractions of CD4^+ T cells treated with C-232A. […] Area under the peak generated by western blot analysis of membrane-associated PKC isoforms after treatment and plotted using GraphPad software. AUC plots were used to generate EC50 values (D). (PNG)

[1] = system: classical isoforms PKC-α, PKC-β1, PKC-β2; test: as above; type: cell-based; conditions: 1 hour
Method: as §1, §2

PKC-θ, sequence (Q04759 whole entry): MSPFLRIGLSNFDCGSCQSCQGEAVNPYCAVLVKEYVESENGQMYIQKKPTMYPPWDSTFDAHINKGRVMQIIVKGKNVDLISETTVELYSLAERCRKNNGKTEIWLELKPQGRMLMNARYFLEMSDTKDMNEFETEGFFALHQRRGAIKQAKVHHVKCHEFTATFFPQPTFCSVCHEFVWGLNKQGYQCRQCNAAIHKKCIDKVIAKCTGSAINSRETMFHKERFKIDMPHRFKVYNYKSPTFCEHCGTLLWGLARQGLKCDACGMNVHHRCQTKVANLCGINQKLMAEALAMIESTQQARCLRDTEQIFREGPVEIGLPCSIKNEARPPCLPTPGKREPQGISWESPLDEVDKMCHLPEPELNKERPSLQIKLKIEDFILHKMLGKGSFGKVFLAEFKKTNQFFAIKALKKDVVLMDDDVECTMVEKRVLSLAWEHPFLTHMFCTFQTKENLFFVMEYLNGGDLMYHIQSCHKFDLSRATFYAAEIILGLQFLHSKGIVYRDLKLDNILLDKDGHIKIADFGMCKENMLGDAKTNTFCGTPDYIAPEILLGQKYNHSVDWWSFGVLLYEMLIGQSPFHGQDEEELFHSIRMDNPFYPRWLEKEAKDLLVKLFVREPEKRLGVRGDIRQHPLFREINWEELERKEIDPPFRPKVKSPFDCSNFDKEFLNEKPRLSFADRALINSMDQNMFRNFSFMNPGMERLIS

With `Cc1ccc(C#Cc2ccc3oc(CC(C)(C)C(=O)OCC4(CO)CC(=CCC(CC(C)C)CC(C)C)C(=O)O4)cc3c2)cc1` (centres unmarked) [C-232A] the “translocation of PKC-θ from cytoplasm to cell membrane” value (PKC-θ) was “translocated PKC-θ from the cytoplasm to the cell membrane in a dose-dependent manner” and the “translocation of classical isoforms α, β1, β2” value [1] was “did not translocate classical isoforms α, β1, or β2”.
